Measurements as given in patent US8592590B2, “Tetrahydrotriazolopyridine compounds as selective MGLU5 receptor potentiators useful for the treatment of schizophrenia” (Eli Lilly and Company, priority 2009, dated 2013).

What was measured:
[1] = biological target: T1, human mGlu5 receptor (Homo sapiens, UniProt P41594); test: Functional in vitro activity at human mGlu5 receptor (FLIPR calcium, potentiator mode); format: cell-based; conditions: AV-12 cells expressing human mGlu5, glutamate EC10, relative EC50
T1 construct: expressed in transfected cells
T1 sequence (P41594 21-1212): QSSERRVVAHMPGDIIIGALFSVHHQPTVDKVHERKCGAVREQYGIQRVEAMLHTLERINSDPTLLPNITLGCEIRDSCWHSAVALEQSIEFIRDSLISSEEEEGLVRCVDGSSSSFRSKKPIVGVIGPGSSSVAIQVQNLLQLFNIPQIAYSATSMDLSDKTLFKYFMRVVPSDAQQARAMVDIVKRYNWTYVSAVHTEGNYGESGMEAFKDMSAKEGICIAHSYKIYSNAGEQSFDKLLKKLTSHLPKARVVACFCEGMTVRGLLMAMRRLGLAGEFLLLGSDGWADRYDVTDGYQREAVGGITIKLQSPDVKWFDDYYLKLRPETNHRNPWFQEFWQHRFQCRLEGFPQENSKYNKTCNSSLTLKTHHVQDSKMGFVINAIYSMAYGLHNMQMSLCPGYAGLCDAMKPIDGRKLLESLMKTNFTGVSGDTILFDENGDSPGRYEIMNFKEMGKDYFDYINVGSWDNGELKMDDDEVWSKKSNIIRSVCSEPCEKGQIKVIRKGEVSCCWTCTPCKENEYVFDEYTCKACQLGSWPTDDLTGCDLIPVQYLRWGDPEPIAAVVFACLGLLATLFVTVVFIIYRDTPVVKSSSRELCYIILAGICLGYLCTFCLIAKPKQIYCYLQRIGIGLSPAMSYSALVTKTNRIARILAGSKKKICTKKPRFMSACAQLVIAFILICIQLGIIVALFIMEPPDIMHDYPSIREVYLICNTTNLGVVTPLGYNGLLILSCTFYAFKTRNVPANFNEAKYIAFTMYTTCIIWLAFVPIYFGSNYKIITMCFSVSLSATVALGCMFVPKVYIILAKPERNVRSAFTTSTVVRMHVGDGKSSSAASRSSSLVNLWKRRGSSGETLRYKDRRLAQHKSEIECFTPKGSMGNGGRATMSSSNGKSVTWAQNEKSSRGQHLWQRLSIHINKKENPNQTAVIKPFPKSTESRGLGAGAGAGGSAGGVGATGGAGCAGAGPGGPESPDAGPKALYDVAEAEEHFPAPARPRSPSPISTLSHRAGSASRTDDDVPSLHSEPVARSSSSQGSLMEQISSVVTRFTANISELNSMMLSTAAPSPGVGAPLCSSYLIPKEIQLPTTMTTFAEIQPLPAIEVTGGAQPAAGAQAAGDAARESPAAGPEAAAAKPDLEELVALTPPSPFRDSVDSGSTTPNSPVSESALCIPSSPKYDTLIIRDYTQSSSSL
Protocol: An AV-12 cell line stably expressing the human mGlu5 receptor and co-transfected with the rat glutamate transporter EAAT 1 (Excitatory Amino Acid Transporter 1) are used for these studies (see for example Desai, Burnett, Mayne, Schoepp, Mol. Pharmacol. 48, 648-657, 1995). The cell line is maintained by culturing in Dulbecco's Modified Eagle's Medium (DMEM) with high glucose and pyridoxine hydrochloride supplemented with 5% heat inactivated, dialyzed fetal bovine serum, 1 mM sodium pyruvate, 10 mM HEPES (4-(2-hydroxyethyl)-1-piperazineethanesulfonic acid), 1 mM of L-glutamine, 0.75 mg/ml geneticin and 0.3 mg/ml hygromycin. Sub-confluent cultures are passaged twice per week using 0.25% trypsin-EDTA. […]
Intracellular calcium levels are monitored before and after the addition of compounds using a Fluorometric Imaging Plate Reader (FLIPR, Molecular Devices, Union City, Calif. USA). […] The results are analyzed using (GraphPad® Prism v4, Graphpad Software, LaJolla, Calif., USA) to calculate the concentrations of glutamate needed to induce the EC10 responses.
Compounds are tested in a two-addition FLIPR assay using a 10-point concentration response profile starting at a final concentration of 25 μM (agonist mode) or 12.5 μM (potentiator mode). […] After taking an initial 5-sec fluorescent read on the FLIPR instrument, compound is added to the cell plate (50 ul per well). […]

[2] = system: Male Lister hooded rats; test: Delayed matching to position task (DMTP) in rats, deficit induced by NMDA antagonist SDZ 220,581; format: in vivo, rat
Source text: The delayed matching to position task (DMTP) has been used to study working memory in rats. Working memory in this context is the retention and use of information that is available only during an individual trial. The study of compounds which modulate NMDA receptors in DMTP has been used to identify the importance of NMDA receptors in learning and memory. More specifically, studies have shown competitive NMDA antagonists to induce impairment of DMTP in rats. Compounds which show a positive effect in attenuating deficits induced by competitive NMDA antagonists in rats are believed to be useful in treating cognitive disorders in humans.
Male Lister hooded rats are housed in groups of 4 and are maintained on a food-restricted diet and a 12-hour light dark cycle. The experiments are conducted during the same part of the light phase each day.
Standard operant chambers, housed in sound and light attenuating chambers are used. Each chamber comprised a house light, two retractable levers, each with a stimulus light above it. The levers are located either side of a recessed magazine where food pellets are delivered from an automatic pellet dispenser. Start of a session is signaled by onset of the house light, and its permanent offset indicated the end of a session. Experimental sessions are controlled and data is recorded and analyzed.
Sample Phase. A trial begins with a one of the levers extending into the chamber. The stimulus light above the lever is illuminated. If the lever is pressed, it is retracted and the stimulus light extinguished. This initiates the pseudo-randomly selected delay period of 1, 2, 4, 8 or 16 seconds during training or 1, 12, or 32 seconds during test.
Head Entry. After this delay period is complete, animals are required to make a head entry into the food hopper within 10 seconds, if an appropriate response is made both levers are extended into the chamber. If no response is made during this period, the house-light is extinguished and the trial counted as an omission.
Choice Phase. If animals make the appropriate head entry response and the levers extended into the operant chamber, they have 10 seconds which to make their response. A correct response consists of an animal pressing the same lever that is extended into the chamber during the sample phase. This response results in both levers retracting and a single food pellet being delivered into the food hopper. After a 5 second inter-trial interval the next trial begins. Following an incorrect response, (the animal pressing the opposite lever as had been extended during the sample phase), both levers retract and the house-light is extinguished signaling the end of that trial. After a 5 second time out the next trial begins, signaled by onset of the house-light. If the animal fails to respond within 10 second during the choice phase, the levers retract, the house-light extinguishes and the trial is recorded as an omission.
Overall Session. Each session is terminated after 75 trials (15 pseudo-random presentations of each delay period). Animals are trained to a criterion of greater than 70% accuracy over the entire session with less than 10% omissions of responding. After criterion is reached, rats are trained two times a week in a baseline condition and once a week in a test condition.
Test Compounds. A compound of the present invention stock of 1.0 mg/ml is prepared. For example, 18.7 mg of the compound of Example 11 is weighed and suspended in 18.7 ml vehicle (1% high viscocity cmc, 0.25% tween, 0.05% antifoam). A white suspension is formed. Test compound is administered orally, 60 minutes prior to the start of a session, in a volume of 1 ml/kg.
NMDA antagonist stock, 2.0 mg/ml: […] of SDZ 220,581 is weighed and dissolved in 16.73 ml vehicle (0.09 ml 1M NaOH, made up to volume with 5% glucose). A solution is formed and at a pH 6.5 at time of injection. SDZ 220,581 is administered subcutaneously, 30 minutes prior to the start of a session, in a volume of 1 ml/kg. […]

[3] = Example 11/V: Example 11 1 mg/kg orally 60 min prior, vehicle instead of SDZ

| SMILES | EC50 [1] | Trials Completed ([2]; Example 11/SDZ: Example 11 1 mg/kg orally 60 min prior plus SDZ 220,581 subcutaneously 30 min prior) | % Accuracy [2, 3] | % Omissions [2, 3] | Average Correct latency [2, 3] | Average Incorrect latency [2, 3] | Head Entries [2, 3] | Sample latency [2, 3] | Trials Completed [2, 3] | deficits induced by SDZ-220,581 in the delayed matching to position assay of working memory ([2]; concurrent treatment with 1 mg/kg Example 11) |
| --- | --- | --- | --- | --- | --- | --- | --- | --- | --- | --- |
| CC(C)(C)c1nnc2n1CC[C@H](c1nc(-c3ccc(F)cc3)no1)C2 (single isomer, unassigned) [Example 11] | 36 ± 3.5 nM | 72 ± 2 | 75.6 ± 1.6% | 1.2 ± 0.4% | 0.94 ± 0.05 s | 0.98 ± 0.08 s | 2092 ± 83 | 1.84 ± 0.22 s | 75 ± 0 | attenuated all deficits |
| CC(C)(C)c1nnc2n1CCC(c1nc(-c3ccc(F)cc3)no1)C2 (racemic) [Example 1, 3-tert-butyl-7-[3-(4-fluorophenyl)-1,2,4-oxadiazol-5-yl]-5,6,7,8-tetrahydro[1,2,4]triazolo[4,3-a]pyridine] | 120 ± 47 nM | – | – | – | – | – | – | – | – | – |
